According to PMC8068036, “Synthesis of New Biscoumarin Derivatives, In Vitro Cholinesterase Inhibition, Molecular Modelling and Antiproliferative Effect in A549 Human Lung Carcinoma Cells” (International Journal of Molecular Sciences, 2021):
Where two headings read alike, the source gives them in different places.

How the values were obtained:
[1] = in vitro; settings: for CNS Predicted Availability: classification from PAMPA-BBB Pe; for Papp: PAMPA; for Papp / Pe ± S.E.M.: pH 7.4; for Pe ± S.E.M.: PAMPA-BBB
Experimental: The parallel artificial membrane permeability assay (PAMPA) is used as a non-cell-based in vitro assay to predict BBB penetration and is carried out in a coated 96-well membrane filter. In our assays, the filter membrane of the donor plate was coated with PBL (Polar Brain Lipid, Avanti, Denver, CO, USA) in dodecane (4 µL of 20 mg mL^−1 PBL in dodecane), and the acceptor well was filled with 300 µL of phosphate buffered saline (PBS) (pH 7.4; VA). The tested compounds were first dissolved in DMSO, and the resulting mixture was diluted with PBS (pH 7.4) to reach the final concentration (40–100 µM) in the donor well. […] Three hundred microliters of the donor solution (VD) were added to the donor wells, and the donor filter plate was carefully placed onto the acceptor plate to ensure that the coated membrane was “in contact” with both the donor solution and the acceptor buffer. The test compound diffused from the donor well through the polar brain lipid membrane (area = 0.28 cm^2) to the acceptor well. The concentration of the tested compound in both the donor and acceptor wells was assessed after 3, 4, 5, and 6 h of incubation, respectively, in quadruplicate using a UV plate reader Synergy HT (Biotek, Winooski, VT, USA) at the maximum absorption wavelength of each compound. Additionally, solutions at the theoretical equilibrium of the given compound (i.e., the theoretical concentration if the donor and acceptor compartment were simply combined) were also prepared.

[2] = molecular target: T1, human recombinant AChE (Homo sapiens, UniProt P22303); experiment: biochemical; type: biochemical; settings: mean of at least three experiments; for IC50: read-out: IC50 ± S.E.M. hAChE
T1 construct: purchased Sigma-Aldrich, Prague, Czech Republic
Experimental: (§1) Human recombinant AChE (EC 3.1.1.7), 5,5′-dithiobis(2-nitrobenzoic acid) (Ellman′s reagent, DTNB), phosphate buffer (PB, 0.1 M, pH 7.4), and acetylthiocholine (ATC) and butyrylthiocholine (BTC), were purchased from Sigma-Aldrich, Prague, Czech Republic. Human plasma was used as a source of BChE and was prepared from heparinized human blood. The blood was centrifuged for 20 min (4 °C, 2300× g) on a Hettich Universal 320R centrifuge. The plasma was separated and stored at […]. Polystyrene Nunc 96-well microplates with a flat bottom shape (ThermoFisher Scientific, Waltham, MA, USA) were used for measuring purposes.
(§2) All of the assays were carried out in a 0.1 M phosphate buffer, pH 7.4. The assay medium (100 µL) consisted of 40 µL of 0.1 M phosphate buffer (pH 7.4), 20 µL of 0.01 M DTNB, 10 µL of the enzyme, and 20 µL of 0.01 M substrate ATC/BTC iodide solution).
(§3) The tested compounds were preincubated for 5 min prior to use. The reaction was initiated immediately upon addition of 20 µL of the substrate. […] Each concentration was assayed in triplicate. Software GraphPad Prism 5 (San Diego, CA, USA) was used in the evaluation of the statistical data.

[3] = molecular target: T2, hBChE (human plasma) (Homo sapiens, UniProt P06276); experiment: biochemical; type: biochemical; settings: human plasma BChE, mean of at least three experiments; for IC50: read-out: IC50 ± S.E.M. hBChE
T2 construct: Human plasma was used as a source of BChE; from tissue; host or cells: human plasma from heparinized blood
Experimental: as §1, §2, §3

[4] = tested on: A549 cells; experiment: MTT assay, A549; type: cell-based, human; settings: for Metabolic activity of A549 cells (in words): 10 to 100 μM, 24 and 48 h; for IC50: Homo sapiens
Experimental: (§4) Human lung carcinoma cell line A549 and CCD-18Co colon fibroblasts were purchased from the American Type Culture Collection (ATCC, Rockville, MD, USA). The A549 cells were cultured in a complete RPMI-1640 medium (Sigma-Aldrich, St. Louis, MO, USA), and CCD-18Co cells were cultured in an MEM medium (PAN-Biotech GmbH, Aidenbach, Germany). The media were supplemented with 10% fetal bovine serum (FBS; Biosera, Nuaille, France) and antibiotics (1% Antibiotic-Antimycotic 100× and 50 × 10^−3 g l^−1 gentamicin; Biosera) at 37 °C, 95% humidity, and 5% CO2.
(§5) Prior to the selected treatments, cells were seeded on 12-well μ-Chamber slides (ibidi GmbH, Martinsried, Germany) and 6 and/or 96-well plates (TPP, Trasadingen, Switzerland) and left to settle for 24 h. The biscoumarin derivative solutions (at concentrations ranging from 10–100 µM) were then added to cells for 24 or 48 h, and analysis was subsequently performed.
(§6) MTT assays were performed in order to evaluate changes in the metabolic activity of cells that had occurred as a consequence of treatment with the biscoumarin derivatives. A549 cells (15 × 10^3 cells/cm^2) and CCD-18Co ([…]) were seeded in 96-well microplates. The cells were treated for 24 and 48 h with different concentrations (10, 25, 35, 50, 65, 75, and 100 µM) of the derivatives. After the treatment, the MTT (3-(4,5-dimethylthiazol-2-yl)-2,5-diphenyltertrazolium bromide) solution in PBS (5 mg mL^−1) was added to each well. […]. The absorbance of formazan (λ = 584 nm) was measured using a BMG FLUOstar Optima spectrometer (BMG Labtech GmbH, Offenburg, Germany). The results were evaluated as percentages of the absorbance of the untreated control. Results are presented as the average percentage of cells from three independent experiments. IC50 values for the derivatives were extrapolated from a sigmoidal fit (dose–response curve) to the metabolic activity data using OriginPro 8.5.0 SR1 (OriginLab Corp., Northampton, MA, USA).

[5] = tested on: A549 cells; experiment: Cell cycle analysis (flow cytometry, PI); type: cell-based, human; settings: 35 and 65 µM, 24 h
Experimental: For flow cytometric analysis of the cell cycle distribution, floating and adherent cells were harvested together 24 h after treatment with the derivatives (35 and 65 µM), washed in cold PBS, fixed in cold 70% ethanol, and stored overnight at −20 °C. Prior to analysis, the cells were washed twice in PBS, resuspended in a staining solution (0.1% Triton X-100, 0.137 g L^−1 ribonuclease A and 0.02 g L^−1 propidium iodide—PI), and incubated in dark conditions at RT for 30 min. The DNA content was analyzed using a BD FACSCalibur flow cytometer (Becton Dickinson, San Jose, CA, USA) with a 488 nm argon-ion excitation laser, and fluorescence was detected using a 585/42 nm band-pass filter (FL-2). ModFit 3.0 software (Verity Software House, Topsham, ME, USA) was used to generate DNA content frequency histograms and to quantify the percentage of cells in the individual cell cycle phases. The results are presented as the average ratio of cells in the individual phase to all cells from three independent experiments.

[6] = tested on: A549 cancer cell line; settings: ref 55 (Huang et al.); cited from earlier work
[7] = tested on: human umbilical vein endothelial cell (HUVEC) cell line; settings: ref 55 (Huang et al.); cited from earlier work
[8] = tested on: CCD-18Co fibroblasts; experiment: MTT assay, CCD-18Co; type: cell-based; settings: for IC50: Homo sapiens, CCD-18Co
Experimental: as §4, §5, §6

[9] = tested on: A549 cells; experiment: Mitotic activity (Ki67 index) by immunolabelling and confocal microscopy; type: cell-based, human; settings: 24 h, vs control
Experimental: The studied biscoumarin derivatives were added to cells seeded on 12-well μ-Chamber slides for 24 h. After cultivation with the derivatives, the samples (both the control without the derivatives and experimental groups) were washed with a 0.1 M PBS solution buffer to remove all non-cell-absorbed derivative residues and fixed with 4% paraformaldehyde for 20 min at RT. Alternatively, cells were incubated with Mitotracker Red (0.5 µM; Thermo Fisher Scientific, Waltham, MA, USA) for 30 min at 37 °C, washed with 0.1 M PBS, and fixed with 4% paraformaldehyde for 20 min at RT. For the quantification of proliferative activity and programmed cell death, samples were incubated overnight at 4 °C with the mouse anti-Ki67 antibody (NCL-L-Ki67-MM1, 1:100, Leica Biosystems, Wetzlar, Germany) and rabbit anti-cleaved PARP (cat. no. 94885, 1:100, Cell Signaling, Danvers, MA, USA) diluted in 0.1 M PBS containing 1% normal donkey serum (Jackson Immunoresearch, Cambridgeshire, Great Britain) and 0.3% Triton-X 100. […]
All samples were evaluated using a Leica TCS SP5X confocal system (Leica Microsystems, Mannheim, Germany). The biscoumarin derivatives were visualized in cells using a 405 nm laser, and the fluorescence was captured in the range of 420–480 nm with identical exposure parameters for all samples. […] Microphotographs were taken with a 40× objective lens (NA = 0.75; voxel size 223 × 223 nm) and a 63× oil lens (NA = 1.4; voxel size 171 × 171 nm); the images were captured and analyzed using LAS AF software (Leica Microsystems, Wetzlar, Germany).
The proliferative activity of cells incubated with the studied derivatives was expressed as a Ki67 index. In all samples (n = 3 samples per each experimental group), the number of Ki67^+ nuclei was calculated in groups of 100 randomly selected cells. […]

[10] = A549, 24 h, read-out: IC50 A549 24 h
[11] = A549, read-out: IC50 A549 48 h, 48 h

T2 sequence (P06276 29-602): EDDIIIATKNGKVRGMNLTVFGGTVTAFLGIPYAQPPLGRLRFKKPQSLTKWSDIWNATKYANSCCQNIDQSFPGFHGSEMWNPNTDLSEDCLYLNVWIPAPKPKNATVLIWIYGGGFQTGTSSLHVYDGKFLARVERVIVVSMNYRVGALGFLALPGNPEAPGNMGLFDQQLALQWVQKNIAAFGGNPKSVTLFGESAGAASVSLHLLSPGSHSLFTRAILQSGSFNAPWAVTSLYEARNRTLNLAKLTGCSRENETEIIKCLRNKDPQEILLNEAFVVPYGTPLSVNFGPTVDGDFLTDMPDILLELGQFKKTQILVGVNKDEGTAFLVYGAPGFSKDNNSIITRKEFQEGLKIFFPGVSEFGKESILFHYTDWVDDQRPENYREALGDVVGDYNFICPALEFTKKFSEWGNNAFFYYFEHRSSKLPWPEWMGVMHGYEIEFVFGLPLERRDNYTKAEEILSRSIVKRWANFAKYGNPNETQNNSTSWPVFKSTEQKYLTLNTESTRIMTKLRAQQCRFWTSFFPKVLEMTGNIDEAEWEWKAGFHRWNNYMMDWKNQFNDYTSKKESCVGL
T1 sequence (P22303 32-614): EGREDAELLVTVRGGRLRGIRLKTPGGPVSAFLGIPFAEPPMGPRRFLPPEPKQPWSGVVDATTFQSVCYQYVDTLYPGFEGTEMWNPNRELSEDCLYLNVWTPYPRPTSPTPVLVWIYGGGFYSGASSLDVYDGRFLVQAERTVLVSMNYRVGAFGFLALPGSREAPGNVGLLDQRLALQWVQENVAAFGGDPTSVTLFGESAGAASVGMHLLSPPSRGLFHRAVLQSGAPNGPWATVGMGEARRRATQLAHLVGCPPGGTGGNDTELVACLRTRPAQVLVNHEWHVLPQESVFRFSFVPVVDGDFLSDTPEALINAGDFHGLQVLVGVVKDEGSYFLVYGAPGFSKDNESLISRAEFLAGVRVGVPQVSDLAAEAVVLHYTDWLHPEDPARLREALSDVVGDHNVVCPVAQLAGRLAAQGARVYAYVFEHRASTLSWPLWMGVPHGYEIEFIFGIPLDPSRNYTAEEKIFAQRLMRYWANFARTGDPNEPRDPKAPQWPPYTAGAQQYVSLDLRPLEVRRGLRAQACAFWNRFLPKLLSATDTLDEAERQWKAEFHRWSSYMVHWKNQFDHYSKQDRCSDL

SMILES	CNS Predicted Availability [1]	Papp [1] [×10⁻⁶ cm/s]	IC50 [2] [µM]	IC50 [3] [µM]	Metabolic activity of A549 cells (in words) [4]	IC50 [4, 10] [µM]	IC50 [4, 11] [µM]	further results
CNC(=C[N+](=O)[O-])NCCSCc1ccc(CN(C)C)o1 [Ranitidine, reference compound]	CNS− (CNS−: low BBB permeation predicted with Pe (×10^−6 cm s^−1) < 2.0)							
COC(=O)Cc1cc(=O)oc2cc(OCCCCCCN3CCN(CCNC(=O)Cc4cc(=O)oc5cc(O)ccc45)CC3)ccc12 [12c, Methyl 2-[7-({7-[4-(2-{[2-(7-hydroxy-2-oxo-2H-4-chromenyl)acetyl]amino}ethyl)piperazino]hexyl}oxy)-2-oxo-2H-4-chromenyl]acetate]	CNS+/− (CNS +/−: BBB permeation uncertain with Pe (×10^−6 cm s^−1) from 4.0 to 2)	2.96 ± 0.73	88.4 ± 12.6	> 500	did not lose the ability to convert dye	> 100	> 100	Pe ± S.E.M. [1]: 2.0–4.0 10^−6 cm s^−1; Cell cycle distribution, G0/G1 phase (in words) [5]: increased the accumulation of cell population in the G0/G1 phase
O=c1[nH]cc(F)c(=O)[nH]1 [5-fluorouracil]								IC50 [6]: 36.3 µM; IC50 [7]: 25.1 µM
COC(=O)Cc1cc(=O)oc2cc(OCCCCCCCN3CCN(CCNC(=O)Cc4cc(=O)oc5cc(O)ccc45)CC3)ccc12 [12d]	CNS+/− (CNS +/−: BBB permeation uncertain with Pe (×10^−6 cm s^−1) from 4.0 to 2)	2.11 ± 1.19	6.3 ± 0.4	49	significant decrease	94	58	Pe ± S.E.M. [1]: 2.0–4.0 10^−6 cm s^−1; Metabolic activity of CCD-18Co cells (in words) ([8]; 24 or 48 h): significantly reduced metabolic activity only at a concentration of 100 μM; IC50 ([8]; 24 h, read-out: IC50 CCD-18Co 24 h): > 100 µM; IC50 ([8]; read-out: IC50 CCD-18Co 48 h, 48 h): > 100 µM; IC50 ([8]; time not stated, read-out: IC50 CCD-18Co): > 100 µM; Cell cycle distribution, G0/G1 phase (in words) [5]: increase in the percentage of the cell population in the G0/G1 phase
COC(=O)Cc1cc(=O)oc2cc(OCCCN3CCN(CCNC(=O)Cc4cc(=O)oc5cc(O)ccc45)CC3)ccc12 [12a]	CNS− (CNS−: low BBB permeation predicted with Pe (×10^−6 cm s^−1) < 2.0)	1.53 ± 0.64	> 500	> 500	did not lose the ability to convert dye	> 100	> 100	IC50 ± S.E.M. hAChE [2]: did not show inhibitory activity; IC50 ± S.E.M. hBChE [3]: did not show inhibitory activity; Number of proliferating cells (Ki67 index), in words [9]: no significant changes
N.N.[Cl][Pt][Cl] [cisplatin]								IC50 [6]: 13.5 µM; IC50 [7]: 9.68 µM
Nc1c2c(nc3ccccc13)CCCC2 [Tacrine, tacrine, reference compound]	CNS+ (CNS+: high BBB permeation predicted with Pe (×10^−6 cm s^−1) > 4.0)							
COC(=O)Cc1cc(=O)oc2cc(OCCCCN3CCN(CCNC(=O)Cc4cc(=O)oc5cc(O)ccc45)CC3)ccc12 [12b]	CNS− (CNS−: low BBB permeation predicted with Pe (×10^−6 cm s^−1) < 2.0)		> 500	> 500	did not lose the ability to convert dye	> 100	> 100	IC50 ± S.E.M. hAChE [2]: did not show inhibitory activity; IC50 ± S.E.M. hBChE [3]: did not show inhibitory activity
